In ChEMBL document CHEMBL3351815, “Synthesis of fluorinated agonist of sphingosine-1-phosphate receptor 1” (Bioorg Med Chem, 2014):
Activity calls are given as the source filed them. The calls are words filed in the database; no cut-off is given here.

Assays:
[1] = target: Sphingosine 1-phosphate receptor 1 (Homo sapiens) (UniProt P21453); test: Agonist activity at S1P receptor in human PC3 cells assessed as increase in proliferation at 100 nM after 24 hrs by [3H]-thymidine incorporation assay; type: cell-based; details: PC-3
Chain of Sphingosine 1-phosphate receptor 1 (Homo sapiens) (P21453 whole entry): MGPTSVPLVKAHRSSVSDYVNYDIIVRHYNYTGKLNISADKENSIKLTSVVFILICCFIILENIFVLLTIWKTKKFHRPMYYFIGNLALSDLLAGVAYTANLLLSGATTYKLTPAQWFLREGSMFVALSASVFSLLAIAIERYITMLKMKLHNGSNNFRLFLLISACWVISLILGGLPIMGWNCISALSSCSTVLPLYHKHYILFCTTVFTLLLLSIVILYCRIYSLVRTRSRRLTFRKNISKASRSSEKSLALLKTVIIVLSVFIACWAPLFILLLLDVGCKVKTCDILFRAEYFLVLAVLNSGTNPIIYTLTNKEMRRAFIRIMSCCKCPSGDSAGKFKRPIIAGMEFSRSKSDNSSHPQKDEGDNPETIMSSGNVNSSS

[2] = target: Sphingosine 1-phosphate receptor 1 (Homo sapiens) (UniProt P21453); test: Agonist activity at S1P receptor in human C4-2B cells assessed as increase in proliferation at 100 nM after 24 hrs by [3H]-thymidine incorporation assay; type: cell-based
[3] = Antiproliferative activity against human PC3 cells assessed as reduction in proliferation after 24 hrs by [3H]-thymidine incorporation assay; type: functional, cell-based; details: PC-3
[4] = Antiproliferative activity against human C4-2B cells assessed as reduction in proliferation after 24 hrs by [3H]-thymidine incorporation assay; type: functional, cell-based; details: LNCaP C4-2B
PC-3 = test: Antiproliferative activity against human PC3 cells assessed as reduction in proliferation at 1 to 10 uM after 24 hrs by MTT assay; type: functional, cell-based
LNCaP C4-2B = test: Antiproliferative activity against human C4-2B cells assessed as reduction in proliferation at 1 to 100 uM after 24 hrs by MTT assay; type: functional, cell-based

Row | Activity [1] | Activity [2] | Compound | IC50 [3] | IC50 [4] | inhibition (PC-3) | inhibition (LNCaP C4-2B)
1 | Active | Active | CCCCCCCCc1ccc(CCC(N)(CO)COP(=O)(O)O)cc1 (stereo not given) | – | – | – | –
2 | inactive | inactive | CCCCCCCCc1ccc(CCC(N)CC(F)(F)P(=O)(O)O)cc1 (stereo not given) | 20 µM | 3000 nM | Active | Active

Row | Compound | Activity [1] | Activity [2] | IC50 [3] | IC50 [4] | inhibition (PC-3) | inhibition (LNCaP C4-2B)
3 | CCCCCCCCCCCCC/C=C/[C@@H](O)[C@@H](N)COP(=O)(O)O | Active | Active | – | – | – | –
